# Measurements published in PMC5218480 (PLoS ONE, 2017).
# Test system: MV-4-11 cells
# Test: Gene expression microarray analysis (Affymetrix PrimeView) and GSEA
# Assay type: cell-based, human
# Parameters: RFU PODN (11730768_x_at) / Fold change /veh PODN (11730768_x_at) / RFU LINC00158 (11744669_a_at) / Fold change /veh LINC00158 (11744669_a_at) / RFU DUSP10 (11751237_a_at) / Fold change /veh DUSP10 (11751237_a_at) / RFU ID3 (11757404_x_at) / Fold change /veh ID3 (11757404_x_at) / RFU PLEKHG5 (11737974_s_at) / Fold change /veh PLEKHG5 (11737974_s_at) / RFU LRRC4B (11730491_at) / Fold change /veh LRRC4B (11730491_at) / RFU GIMAP4 (11747438_a_at) / Fold change /veh GIMAP4 (11747438_a_at) / RFU KRT8 (11758183_x_at) / Fold change /veh KRT8 (11758183_x_at) / RFU CNN1 (11734310_a_at) / Fold change /veh CNN1 (11734310_a_at) / RFU VPS37D (11726825_at) / Fold change /veh VPS37D (11726825_at) / RFU C10orf10 (11716522_x_at) / Fold change /veh C10orf10 (11716522_x_at) / RFU KIR2DL2 /// KIR2DL4 /// KIR2DL5A /// KIR2DL5B /// KIR2DS1 /// KIR2DS2 /// KIR2DS3 /// KIR2DS4 /// KIR3DL3 /// KIR3DL3 /// KIR3DS1 (11738374_at) / Fold change /veh KIR2DL2 /// KIR2DL4 /// KIR2DL5A /// KIR2DL5B /// KIR2DS1 /// KIR2DS2 /// KIR2DS3 /// KIR2DS4 /// KIR3DL3 /// KIR3DL3 /// KIR3DS1 (11738374_at) / RFU C1QL1 (11718748_at) / Fold change /veh C1QL1 (11718748_at) / RFU TMPRSS4 (11747572_a_at) / Fold change /veh TMPRSS4 (11747572_a_at) / RFU HAMP (11756126_x_at) / Fold change /veh HAMP (11756126_x_at) / RFU RNFT2 (11725882_a_at) / Fold change /veh RNFT2 (11725882_a_at) / RFU NR4A2 (11747474_a_at) / Fold change /veh NR4A2 (11747474_a_at) / RFU ABCC12 (11746883_a_at) / Fold change /veh ABCC12 (11746883_a_at) / RFU TMEM136 (11760407_x_at) / Fold change /veh TMEM136 (11760407_x_at) / RFU CLDN22 /// WWC2 (11732394_at) / Fold change /veh CLDN22 /// WWC2 (11732394_at) / RFU HLA-DPB1 (11760878_x_at) / Fold change /veh HLA-DPB1 (11760878_x_at) / RFU SPINT1 (11716480_a_at) / Fold change /veh SPINT1 (11716480_a_at) / RFU GAP43 (11754022_s_at) / Fold change /veh GAP43 (11754022_s_at) / RFU A4GNT (11735810_at) / Fold change /veh A4GNT (11735810_at) / RFU PRB3 (11715151_x_at) / Fold change /veh PRB3 (11715151_x_at) / RFU TUBB4B (11761932_at) / Fold change /veh TUBB4B (11761932_at) / RFU CAPN14 (11732068_a_at) / Fold change /veh CAPN14 (11732068_a_at) / RFU TMCC2 (11721928_a_at) / Fold change /veh TMCC2 (11721928_a_at) / RFU IRGQ (11745062_a_at) / Fold change /veh IRGQ (11745062_a_at) / RFU FAM174B (11720279_a_at) / Fold change /veh FAM174B (11720279_a_at) / RFU TMPRSS4 (11748680_a_at) / Fold change /veh TMPRSS4 (11748680_a_at) / RFU FAM212B (11763350_a_at) / Fold change /veh FAM212B (11763350_a_at) / RFU PLEKHG5 (11743358_a_at) / Fold change /veh PLEKHG5 (11743358_a_at) / RFU ZSCAN30 (11745921_a_at) / Fold change /veh ZSCAN30 (11745921_a_at) / RFU CMKLR1 (11741424_a_at) / Fold change /veh CMKLR1 (11741424_a_at) / RFU LOC101060620 /// MAPK8IP1 (11723275_at) / Fold change /veh LOC101060620 /// MAPK8IP1 (11723275_at) / RFU SPTSSB (11747773_x_at) / Fold change /veh SPTSSB (11747773_x_at) / RFU PRSS12 (11739890_at) / Fold change /veh PRSS12 (11739890_at) / RFU BIN1 (11741810_x_at) / Fold change /veh BIN1 (11741810_x_at) / RFU WNT11 (11732464_a_at) / Fold change /veh WNT11 (11732464_a_at) / RFU C10orf10 (11716521_a_at) / Fold change /veh C10orf10 (11716521_a_at) / RFU C5orf56 (11738089_at) / Fold change /veh C5orf56 (11738089_at) / RFU CYB561 (11721691_x_at) / Fold change /veh CYB561 (11721691_x_at) / RFU ANKRD19P (11752326_a_at) / Fold change /veh ANKRD19P (11752326_a_at) / RFU OR2T12 /// OR2T33 /// OR2T8 (11738714_s_at) / Fold change /veh OR2T12 /// OR2T33 /// OR2T8 (11738714_s_at) / RFU VCAN (11748164_a_at) / Fold change /veh VCAN (11748164_a_at) / RFU JSRP1 (11732532_at) / Fold change /veh JSRP1 (11732532_at) / RFU KRTAP10-11 (11738290_x_at) / Fold change /veh KRTAP10-11 (11738290_x_at) / RFU MYO3A (11730013_a_at) / Fold change /veh MYO3A (11730013_a_at) / RFU EBF3 (11725865_a_at) / Fold change /veh EBF3 (11725865_a_at) / RFU CAMK2N1 (11719241_x_at) / Fold change /veh CAMK2N1 (11719241_x_at) / RFU C5orf56 (11738088_a_at) / Fold change /veh C5orf56 (11738088_a_at) / RFU OLFML3 (11715873_a_at) / Fold change /veh OLFML3 (11715873_a_at) / RFU LOC100653217 /// NTM (11731650_a_at) / Fold change /veh LOC100653217 /// NTM (11731650_a_at) / RFU MAPK11 (11762145_a_at) / Fold change /veh MAPK11 (11762145_a_at) / RFU FIZ1 (11724087_x_at) / Fold change /veh FIZ1 (11724087_x_at) / RFU OASL (11726364_x_at) / Fold change /veh OASL (11726364_x_at) / RFU SOX15 (11748057_x_at) / Fold change /veh SOX15 (11748057_x_at) / RFU CD79A (11719716_a_at) / Fold change /veh CD79A (11719716_a_at) / RFU HIST1H1D (11736915_at) / Fold change /veh HIST1H1D (11736915_at) / RFU CASKIN2 (11723855_a_at) / Fold change /veh CASKIN2 (11723855_a_at) / RFU LOC730098 (11760151_x_at) / Fold change /veh LOC730098 (11760151_x_at) / RFU OR4N2 (11742367_at) / Fold change /veh OR4N2 (11742367_at) / RFU PRRT2 (11749266_a_at) / Fold change /veh PRRT2 (11749266_a_at) / RFU SNX32 (11753110_a_at) / Fold change /veh SNX32 (11753110_a_at) / RFU CDHR5 (11726645_a_at) / Fold change /veh CDHR5 (11726645_a_at) / RFU RCAN1 (11760418_a_at) / Fold change /veh RCAN1 (11760418_a_at) / RFU FAM167A (11723789_a_at) / Fold change /veh FAM167A (11723789_a_at) / RFU FAM26E (11764081_at) / Fold change /veh FAM26E (11764081_at) / RFU ISYNA1 (11749810_s_at) / Fold change /veh ISYNA1 (11749810_s_at) / RFU ACY1 (11761880_at) / Fold change /veh ACY1 (11761880_at) / RFU 11764098_at / Fold change /veh 11764098_at / RFU SAMD14 (11745864_x_at) / Fold change /veh SAMD14 (11745864_x_at) / RFU NPB (11741838_a_at) / Fold change /veh NPB (11741838_a_at) / RFU TMPRSS6 (11731388_a_at) / Fold change /veh TMPRSS6 (11731388_a_at) / RFU KRTAP10-2 (11738614_at) / Fold change /veh KRTAP10-2 (11738614_at) / RFU ARHGAP8 /// PRR5-ARHGAP8 (11727945_x_at) / Fold change /veh ARHGAP8 /// PRR5-ARHGAP8 (11727945_x_at) / RFU KRTAP5-7 /// NADSYN1 (11734609_at) / Fold change /veh KRTAP5-7 /// NADSYN1 (11734609_at) / RFU RASL12 (11751679_a_at) / Fold change /veh RASL12 (11751679_a_at) / RFU CDKN2B (11736163_a_at) / Fold change /veh CDKN2B (11736163_a_at) / RFU PRF1 (11729649_at) / Fold change /veh PRF1 (11729649_at) / RFU, ZNF638 /// ZNF638-IT1 / Fold change vs veh, ZNF638 /// ZNF638-IT1 / RFU, PANK3 / Fold change vs veh, PANK3 / RFU, SH3YL1 / Fold change vs veh, SH3YL1 / RFU, ZEB2 / Fold change vs veh, ZEB2 / RFU, NRIP1 / Fold change vs veh, NRIP1 / RFU, PTTG1IP / Fold change vs veh, PTTG1IP / RFU, CAPN2 / Fold change vs veh, CAPN2 / RFU, MED14 / Fold change vs veh, MED14 / RFU, SNORA58 / Fold change vs veh, SNORA58 / RFU, C1orf63 / Fold change vs veh, C1orf63 / RFU, LRRFIP1 / Fold change vs veh, LRRFIP1 / RFU, NDUFAF7 / Fold change vs veh, NDUFAF7 / RFU, SLC12A2 / Fold change vs veh, SLC12A2 / RFU, IBTK / Fold change vs veh, IBTK / RFU, ESF1 / Fold change vs veh, ESF1 / Fold change vs veh, TMEM50B / RFU, TAOK1 / Fold change vs veh, TAOK1 / RFU, ACBD3 / Fold change vs veh, ACBD3 / RFU, TMA16 / Fold change vs veh, TMA16 / RFU, RWDD3 / Fold change vs veh, RWDD3 / RFU, BCAT1 / Fold change vs veh, BCAT1 / RFU, EDEM3 / Fold change vs veh, EDEM3 / RFU, TMEM33 / Fold change vs veh, TMEM33 / RFU, WDR75 / Fold change vs veh, WDR75 / RFU, AHCTF1 / Fold change vs veh, AHCTF1 / RFU, TFRC / Fold change vs veh, TFRC / RFU, ZDHHC17 / Fold change vs veh, ZDHHC17 / RFU, NOM1 / Fold change vs veh, NOM1 / RFU, ARL8B / Fold change vs veh, ARL8B / RFU, ZBTB11 / Fold change vs veh, ZBTB11 / RFU, TAMM41 / Fold change vs veh, TAMM41 / RFU, KIAA1704 /// LOC100996395 / Fold change vs veh, KIAA1704 /// LOC100996395 / RFU, ING1 / Fold change vs veh, ING1 / RFU, TRMT61B / Fold change vs veh, TRMT61B / RFU, FUBP3 / Fold change vs veh, FUBP3 / RFU, TP53 / Fold change vs veh, TP53 / RFU, TNKS2 / Fold change vs veh, TNKS2 / RFU, ZFP14 / Fold change vs veh, ZFP14 / RFU, ACTR2 / Fold change vs veh, ACTR2 / RFU, PPP3R1 / Fold change vs veh, PPP3R1 / RFU, PIK3R1 / Fold change vs veh, PIK3R1 / RFU, HNRNPA1 / Fold change vs veh, HNRNPA1 / RFU, RNF170 / Fold change vs veh, RNF170 / RFU, ZNF28 / Fold change vs veh, ZNF28 / RFU, RNGTT / Fold change vs veh, RNGTT / RFU, OGT / Fold change vs veh, OGT / RFU, BRD1 / Fold change vs veh, BRD1 / RFU, MARS / Fold change vs veh, MARS / RFU, ZNF655 / Fold change vs veh, ZNF655 / RFU, FAHD1 / Fold change vs veh, FAHD1 / RFU, BDP1 / Fold change vs veh, BDP1 / RFU, LRRCC1 / Fold change vs veh, LRRCC1 / RFU, ARID1A / Fold change vs veh, ARID1A / RFU, ZNF146 / Fold change vs veh, ZNF146 / RFU, ZNF330 / Fold change vs veh, ZNF330 / RFU, GPN3 / Fold change vs veh, GPN3 / RFU, C9orf123 / Fold change vs veh, C9orf123 / RFU, N4BP2L2 / Fold change vs veh, N4BP2L2 / RFU, ARFIP1 / Fold change vs veh, ARFIP1 / RFU, FAM179B / Fold change vs veh, FAM179B / RFU, BCL10 / Fold change vs veh, BCL10 / RFU, UHRF1BP1L / Fold change vs veh, UHRF1BP1L / RFU, BET1 / Fold change vs veh, BET1 / RFU, CNOT2 / Fold change vs veh, CNOT2 / RFU, ZNF268 / Fold change vs veh, ZNF268 / Fold change vs veh, ZNF507 / RFU, DGCR2 / Fold change vs veh, DGCR2 / RFU, WDSUB1 / Fold change vs veh, WDSUB1 / Fold change vs veh, HSP90B1 /// MIR3652 / RFU, ADSS / Fold change vs veh, ADSS / RFU, GK / Fold change vs veh, GK / RFU, ZNF148 / Fold change vs veh, ZNF148 / RFU, TAF9 / Fold change vs veh, TAF9 / RFU, SLC1A5 / Fold change vs veh, SLC1A5 / RFU, SLMO2 / Fold change vs veh, SLMO2 / RFU, ABCC4 / Fold change vs veh, ABCC4 / RFU, LOC101060439 /// RAP1B / Fold change vs veh, LOC101060439 /// RAP1B / RFU, RFX7 / Fold change vs veh, RFX7 / RFU, GTPBP10 / Fold change vs veh, GTPBP10 / RFU, CNEP1R1 / Fold change vs veh, CNEP1R1 / RFU, BIVM-ERCC5 /// ERCC5 / Fold change vs veh, BIVM-ERCC5 /// ERCC5 / RFU, ILF3 / Fold change vs veh, ILF3 / RFU 11762660_at / Fold change /veh 11762660_at / RFU VCAN (11757783_s_at) / Fold change /veh VCAN (11757783_s_at) / RFU DDX43 (11728927_at) / Fold change /veh DDX43 (11728927_at) / RFU KRT8 (11758188_x_at) / Fold change /veh KRT8 (11758188_x_at) / RFU NKD1 (11759106_at) / Fold change /veh NKD1 (11759106_at) / RFU SRD5A1 (11742802_a_at) / Fold change /veh SRD5A1 (11742802_a_at) / RFU TPSAB1 /// TPSB2 (11721975_s_at) / Fold change /veh TPSAB1 /// TPSB2 (11721975_s_at) / RFU GSTM3 (11746129_a_at) / Fold change /veh GSTM3 (11746129_a_at) / RFU IL23R (11737362_x_at) / Fold change /veh IL23R (11737362_x_at) / RFU TMEM51 (11727254_a_at) / Fold change /veh TMEM51 (11727254_a_at) / RFU PIWIL2 (11732686_x_at) / Fold change /veh PIWIL2 (11732686_x_at) / RFU ORM1 (11744905_x_at) / Fold change /veh ORM1 (11744905_x_at) / RFU CCDC152 (11743942_at) / Fold change /veh CCDC152 (11743942_at) / RFU ECM1 (11717891_a_at) / Fold change /veh ECM1 (11717891_a_at) / RFU IL23R (11748794_a_at) / Fold change /veh IL23R (11748794_a_at) / RFU TNFAIP8L3 (11732012_x_at) / Fold change /veh TNFAIP8L3 (11732012_x_at) / RFU MBOAT4 (11741988_at) / Fold change /veh MBOAT4 (11741988_at) / RFU 11764193_at / Fold change /veh 11764193_at / RFU TMEM53 (11763286_at) / Fold change /veh TMEM53 (11763286_at) / RFU MAGEB2 (11727129_at) / Fold change /veh MAGEB2 (11727129_at) / RFU TMEM200A (11744735_a_at) / Fold change /veh TMEM200A (11744735_a_at) / RFU CCDC152 (11751479_a_at) / Fold change /veh CCDC152 (11751479_a_at) / RFU FAM211A (11726209_a_at) / Fold change /veh FAM211A (11726209_a_at) / RFU RGS16 (11746705_a_at) / Fold change /veh RGS16 (11746705_a_at) / RFU VCAN (11755009_s_at) / Fold change /veh VCAN (11755009_s_at) / RFU RHOB (11743442_s_at) / Fold change /veh RHOB (11743442_s_at) / RFU RGS16 (11720943_a_at) / Fold change /veh RGS16 (11720943_a_at) / RFU RGS16 (11720944_at) / Fold change /veh RGS16 (11720944_at) / RFU, VPS4B / Fold change vs veh, VPS4B / RFU, CREB1 / Fold change vs veh, CREB1 / RFU, DNAJC13 / Fold change vs veh, DNAJC13 / RFU, GNAQ / Fold change vs veh, GNAQ / RFU, CDK5R1 / Fold change vs veh, CDK5R1 / RFU, ZRANB3 / Fold change vs veh, ZRANB3 / RFU, CUL4A / Fold change vs veh, CUL4A / RFU, CCNY / Fold change vs veh, CCNY / RFU, UFL1 / Fold change vs veh, UFL1 / RFU, COG3 / Fold change vs veh, COG3 / RFU, DIAPH2 / Fold change vs veh, DIAPH2 / RFU, SKA2 / Fold change vs veh, SKA2 / RFU, AFF3 / Fold change vs veh, AFF3 / RFU, LMF1 / Fold change vs veh, LMF1 / RFU, IPO11 / Fold change vs veh, IPO11 / RFU, DFFB / Fold change vs veh, DFFB / RFU, FOXP1 / Fold change vs veh, FOXP1 / RFU, CARD8 / Fold change vs veh, CARD8 / RFU, STRN3 / Fold change vs veh, STRN3 / RFU, ADK / Fold change vs veh, ADK / RFU, RASSF2 / Fold change vs veh, RASSF2 / RFU, WIPF1 / Fold change vs veh, WIPF1 / RFU, LARP1B / Fold change vs veh, LARP1B / RFU, RASA1 / Fold change vs veh, RASA1 / RFU, RB1 / Fold change vs veh, RB1 / RFU, PPFIA1 / Fold change vs veh, PPFIA1 / RFU, MAT2A / Fold change vs veh, MAT2A / RFU, CCT5 / Fold change vs veh, CCT5 / RFU, WDR92 / Fold change vs veh, WDR92 / RFU, CUX1 / Fold change vs veh, CUX1 / RFU, TTC7A / Fold change vs veh, TTC7A / RFU, TMEM135 / Fold change vs veh, TMEM135 / RFU, DEPTOR / Fold change vs veh, DEPTOR / RFU, CPM / Fold change vs veh, CPM / RFU, DNAJB6 / Fold change vs veh, DNAJB6 / RFU, CACNA2D3 / Fold change vs veh, CACNA2D3 / RFU, DTX4 / Fold change vs veh, DTX4 / RFU, TFCP2 / Fold change vs veh, TFCP2 / RFU, GMCL1 /// GMCL1P1 / Fold change vs veh, GMCL1 /// GMCL1P1 / RFU, AEBP2 / Fold change vs veh, AEBP2 / RFU, SNHG1 /// SNORD22 /// SNORD25 /// SNORD26 /// SNORD27 /// SNORD28 /// SNORD29 /// SNORD31 / Fold change vs veh, SNHG1 /// SNORD22 /// SNORD25 /// SNORD26 /// SNORD27 /// SNORD28 /// SNORD29 /// SNORD31 / Fold change (Aza/veh), C12orf56 (ProbeSet 11735607_a_at) / Fold change (ACY-1035/veh), C12orf56 (ProbeSet 11735607_a_at) / Fold change (Aza/veh), FGFR1OP (ProbeSet 11751329_s_at) / Fold change (ACY-1035/veh), FGFR1OP (ProbeSet 11751329_s_at) / Fold change (Aza/veh), VPS36 (ProbeSet 11739960_a_at) / Fold change (ACY-1035/veh), VPS36 (ProbeSet 11739960_a_at) / RFU SYPL1 (11715823_x_at) / Fold change /veh SYPL1 (11715823_x_at) / RFU IGFBP7 (11715501_s_at) / Fold change /veh IGFBP7 (11715501_s_at) / RFU REEP3 (11722064_at) / Fold change /veh REEP3 (11722064_at) / RFU IGLL1 (11728026_x_at) / Fold change /veh IGLL1 (11728026_x_at): dose or concentration left out as unconfirmed
# Settings: ProbeSet 11720154_at; LIST B
smiles,measurement,value
Nc1ccc(-c2cccs2)cc1NC(=O)c1ccc2c(c1)cc(C1CC1)n2CCN1CCOCC1 [ACY-1035],"RFU, NRIP1",473.81 RFU
